In PMC10458307, “New Scaffolds of Proteasome Inhibitors: Boosting Anticancer Potential by Exploiting the Synergy of In Silico and In Vitro Methodologies” (Pharmaceuticals, 2023):
Where “and” joins values, the source holds several entries; their conditions need not be identical. Equal entries are not always repeated. Where two headings read alike, the source gives them in different places.

Columns and labels:
[1] = biological target: T1, isolated human 20S proteasome, CT-L activity (Homo sapiens, UniProt P20618+P28074); test: Proteasome inhibition assay in isolated human 20S proteasomes (Proteasome-Glo), CT-L activity; type: biochemical; details: for inhibition at 10 µM: read-out: percentage of proteasome inhibition, CT-L, isolated 20S proteasome; for percentage of proteasome inhibition, CT-L, isolated human 20S proteasome: at 100 µM, Table 1 legend: bortezomib positive control 10 µM
T1 construct: human purified erythrocyte-derived 20S proteasome; purchased Enzo Life Sciences, Inc; host or cells: human erythrocytes (natural source)
Source text: In this assay, the peptide substrates are bound to aminoluciferin (Suc-LLVY-AML for CT-L activity, Z-nLPnLD-AML for C-L, and Z-LRR-AML for T-L), leading the cleavage of these substrates by the proteasome to the release of free aminoluciferin, which is the substrate of the buffer-contained luciferase.
To evaluate human purified erythrocyte-derived 20S proteasome inhibitory activity of the chosen compounds, the Proteasome-Glo™ 3-substrate system (Promega Corporation, Madison, WI, USA) was employed. The Proteasome-Glo™ reagents of the three proteolytic activities were prepared according to the manufacturer’s instructions, aliquoted, and stored at either −20 °C or 4 °C, avoiding freezing–thaw cycles. […] The purified 20S proteasome (Enzo Life Sciences, Inc., Farmingdale, NY, USA) was diluted in HEPES buffer 10 mM, pH 7.4, to a concentration experimentally adjusted to the signal/noise ratio obtained with each particular lot of Proteasome-Glo™ reagent, in order to have a good compromise between sensitivity and linear response. […] All assays were performed in white-walled multiwell plates (Thermo Scientific™ Sterilin™ White Microtiter™ plates, Thermo Fisher Scientific, Paisley, UK) in duplicates. The proteasome solution (25 μL) was added to each well first, then the diluted solutions of the assayed compounds (25 μL), and lastly the Proteasome-Glo™ Reagent (50 μL). […] Reagents were added to the plate well on ice, and the plate was then transferred to the plate luminometer (SpectraMax®, Molecular Devices, LLC, San Jose, CA, USA) set at 37 °C, gently mixed for 30 s, and the measurements were immediately started in kinetic mode, with data collected every 5 min for at least 60 min.
All compounds were dissolved in DMSO at a concentration of 10 mM and stored at −20 °C or 4 °C. Solutions of the test compounds were prepared at their adequate dilutions in 10 mM HEPES buffer pH 7.6 before each experiment.
To calculate the proteasome activity over time, the value of mean relative luminescence units (RLU) of blank wells at each respective time point was subtracted, and then the ratio between mean RLU of the sample and mean RLU of the positive control wells was calculated for each time point and expressed as percentage.

[2] = Cell viability, MTT assay, HCT116; type: cell-based, human; details: human, HCT116 colorectal carcinoma cells; for viability at 72 h, 10 µM: at 10 µM, read-out: percentage of cell viability, MTT, HCT-116; for viability at 72 h, 100 µM: at 100 µM, read-out: percentage of cell viability, MTT, HCT116
Description: (§1) Whenever possible, additional concentrations were tested and IC50 values were determined.
(§2) Human leukemia Jurkat E6.1 T-cell line and K562-cell line were originally obtained from ATCC Collections (Manassas, VA, USA); human HT-29 and HCT116 colorectal carcinoma-cell lines were obtained from ECACC (Porton Down, Porton, UK). Cells were passaged for less than 6 months after and routinely tested for mycoplasma contamination using Mycoalert detection kit (Lonza, Basel, Switzerland). Jurkat, K562, and HT-29 cells were maintained in Roswell Park Memorial Institute (RPMI) 1640 with GlutaMAX™, supplemented with 1% antibiotic mixture (100 µg/mL streptomycin and 100 U/mL penicillin) and 10% heat-inactivated foetal bovine serum (FBS) (all from Gibco, Thermo Fisher Scientific, Paisley, UK). HCT116 cells were maintained in Dulbecco’s Modified Eagle Medium (DMEM) with GlutaMAX™, supplemented with 1% antibiotic mixture (100 µg/mL streptomycin and 100 U/mL penicillin) and 10% heat-inactivated FBS (all from Gibco, Thermo Fisher Scientific, Paisley, UK). Incubation was performed at 37 °C in a 5% CO2 atmosphere. Cells were routinely passaged every 2 or 3 days at 70–90% confluence; TrypLE Express (Gibco, Thermo Fisher Scientific, Paisley, UK) was used as dissociation agent for adherent cells. Trypan blue (Gibco, Thermo Fisher Scientific, Paisley, UK) was used to assess cell viability using the dye exclusion test.
(§3) To assess cell viability, the MTT assay was performed. Jurkat/K562/HT-29/HCT116 cell lines were seeded in triplicate (10,000 cells/well) in 96-well plates with 50 µL of complete medium and incubated at 37 °C, 5% CO2 for 24 h to allow the cells to adhere to the plate (in the case of adherent cells). […] Untreated cells seeded in triplicate were used as control. The blank was performed in triplicate with 100 µL of culture medium. The cells were incubated with the compounds, in triplicate, in 100 µL of total volume, at 37 °C, 5% CO2 for 72 h. […] In suspension cells (Jurkat), 25 µL of MTT were directly added to each well and, after 3 h 30 m of incubation, 100 µL of DMSO were added to solubilize the formazan crystals; in adherent cells (HT-29 and HCT116), the culture medium was removed, 25 µL of MTT were added to each well and, after 3 h 30 m of incubation, upon MTT removal, 100 µL of DMSO were added to solubilize the formazan crystals. After 15 min, the samples absorbance was measured at 570 nm and the percentage of cell viability was determined.

HCT116 cells = test: Cell viability, MTT assay, HCT116; type: cell-based, human; details: 72 h; for IC50: Homo sapiens, HCT-116, mean ± SD; for percentage of cell viability, MTT, HCT116: at 100 µM
Description: as §1, §2, §3

[3] = biological target: T2, 20S proteasome in Jurkat cell lysates, CT-L activity (Homo sapiens, UniProt P28074); test: Proteasome inhibition assay in cell lysates, Jurkat, CT-L; details: for inhibition at 10 µM: read-out: percentage of proteasome inhibition, CT-L, cell lysates Jurkat, at 10 µM; for inhibition at 100 µM: read-out: percentage of proteasome inhibition, CT-L, cell lysates Jurkat, at 100 µM
T2 sequence (P28074 60-263): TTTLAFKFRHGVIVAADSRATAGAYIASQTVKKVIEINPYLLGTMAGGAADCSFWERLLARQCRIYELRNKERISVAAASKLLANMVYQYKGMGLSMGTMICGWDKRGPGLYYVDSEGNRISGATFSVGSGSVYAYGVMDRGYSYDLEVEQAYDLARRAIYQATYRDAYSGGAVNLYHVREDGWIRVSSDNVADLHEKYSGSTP
T2 sequence (P20618 29-241 partner): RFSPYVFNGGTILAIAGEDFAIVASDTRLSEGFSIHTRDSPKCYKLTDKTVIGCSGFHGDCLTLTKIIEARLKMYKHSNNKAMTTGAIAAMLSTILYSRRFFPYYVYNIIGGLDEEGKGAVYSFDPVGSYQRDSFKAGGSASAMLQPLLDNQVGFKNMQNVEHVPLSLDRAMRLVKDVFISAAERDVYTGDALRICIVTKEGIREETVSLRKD
Description: Cells were obtained from several cultured cell lines: Jurkat, K562, HT-29, and HCT116. Pellets with 20 × 10^6 cells were prepared and washed with cold sterile phosphate buffered saline (PBS), 1×, pH 7.4 (Gibco, Thermo Fisher Scientific, Paisley, UK). The preparation of the lysates from several cell lines was performed based on the methodology described by Gavioli et al. [67]. Cells were resuspended in buffer containing 50 mM TRIS-HCl pH 7.4 (Nzytech, Lisboa, Portugal), 5 mM MgCl2 (≥98% purity, Merck, Hamburg, Germany), 1 mM DTT (Merck, Hamburg, Germany), 2 mM ATP (≥98% purity, Enzo Life Sciences Inc., Farmingdale, NY, USA), and 250 mM saccharose (Merck, Hamburg, Germany). Glass beads (Merck, Hamburg, Germany) equivalent to the volume of the cell suspension were added, and the mixture was vortexed for 2 min at 4 °C. Beads and cell debris were removed using 5 min centrifugation at 1000× g and 4 °C, followed by 20 min of centrifugation at 10,000× g at 4 °C. Cell lysates containing proteasomes were resuspended in “activity buffer” [50 mM TRIS-HCl (pH 7.4), 5 mM MgCl2, 1 mM DTT, 2 mM ATP (≥98% purity, Enzo Life Sciences Inc., Farmingdale, NY, USA), and 500 µM EDTA (≥98% purity, Merck, Hamburg, Germany)]. Protein concentration was determined using the Pierce™ BCA protocol (Thermo Fisher Scientific, Rockford, IL, USA). […] DMSO was added in an equal volume as used for the untreated compounds as a way to assess/control its influence in the assay. Untreated cells were used as control. In each well of a 96-well plate, 25 µL of lysate were seeded in duplicate with 25 µL of the compound to test; in the control, 25 µL of activity buffer were added to the 25 µL of lysate. A blank (50 µL of activity buffer) was added to the wells in quadruplicate. Cell lysates, pre-treated or not with different concentrations of the test compounds, were incubated for 30 min at 37 °C. […] Stock solutions (10 mM) of each substrate were prepared in DMSO, diluted in activity buffer, and 50 µL were added to all wells (final concentration of each substrate = 100 µM), followed by an incubation at 37 °C for 60 min. Samples fluorescence was measured at an excitation wavelength of 360 nm and emission of 465 nm; the fluorescence measures were performed using the GloMax-Multi + Detection System (Promega Corp., Madison, WI, USA). Activity was evaluated in fluorescence units, after being converted to percentage of proteasome inhibition and, whenever possible, expressed as IC50 by plotting the inhibition data of each compound at different concentrations against the log of the concentration of the inhibitor, using the GraphPad Prism software version 7. At least eight different concentrations of the test compounds were used.

[4] = Cell viability, MTT assay, Jurkat; type: cell-based, human; details: human, Jurkat E6.1 T-cell leukemia cells, read-out: percentage of cell viability, MTT, Jurkat; for viability at 72 h, 10 µM: at 10 µM; for viability at 72 h, 100 µM: at 100 µM
Description: as §1, §2, §3

Jurkat cells = test: Cell viability, MTT assay, Jurkat; type: cell-based, human; details: 72 h; for IC50: Homo sapiens, Jurkat, mean ± SD; for percentage of cell viability, MTT, Jurkat: at 100 µM
Description: as §1, §2, §3

[5] = at 100 µM, Table 2 legend: bortezomib 10 µM
[6] = Table 2 legend: bortezomib 10 µM
[7] = mean ± SD, read-out: IC50, CT-L, isolated human 20S proteasome

| inhibition at 10 µM ([1]; at 10 µM) [%] | percentage of proteasome inhibition, CT-L, isolated human 20S proteasome [1] | IC50 (HCT116 cells) [µM] | percentage of proteasome inhibition, CT-L, cell lysates Jurkat ([3]; at 10 µM) [%] | percentage of proteasome inhibition, CT-L, cell lysates Jurkat [3, 5] | IC50 (Jurkat cells) [µM] | inhibition at 10 µM [3] [%] | inhibition at 100 µM [3, 6] [%] | IC50 [1, 7] [µM] | IC50 [3] [µM] | IC50 [1] [µM] | inhibition at 10 µM [1] [%] | SMILES | viability at 72 h, 10 µM [2] [%] | viability at 72 h, 100 µM [2] [%] | viability at 72 h, 10 µM [4] [%] | viability at 72 h, 100 µM [4] [%] | percentage of cell viability, MTT, Jurkat (Jurkat cells) [%] | percentage of cell viability, MTT, HCT116 (HCT116 cells) [%] |
| --- | --- | --- | --- | --- | --- | --- | --- | --- | --- | --- | --- | --- | --- | --- | --- | --- | --- | --- |
| 91 | 99.92% and 100% | 0.0107 | 99.63 | 99.30% and 99% | 0.00648 |  |  |  |  |  |  | CC(C)C[C@H](NC(=O)[C@H](Cc1ccccc1)NC(=O)c1cnccn1)B(O)O [Bortezomib, bortezomib, reference compound] | 0 | 0 | 0 | 0 |  |  |
| 0 | 37.72% and 38% | 65.7 |  | 54% | 36.8 | 0 | 53.5 |  |  |  |  | Cc1ccc2ccccc2c1CSc1ncnc2c1ncn2C1OC(CO)C(O)C1O (centres unmarked) [Compound 1] | 95.5 | 24 | 98.7 | 21 | 21 |  |
| 81.3 | 98% |  |  | 72% |  | 8.23 | 72.1 | 5.6 | 73.2 |  |  | O=C1c2ccccc2C(=O)c2c(Nc3ccc(S(=O)(=O)N(CCO)CCO)cc3)ccc(O)c21 [Compound 2] | 98 | 89.1 | 80.2 | 77.2 | 77 | 89 |
|  | 91.40% and 91% |  |  | 33% |  | 0 | 32.8 |  |  | 49.3 | 8.2 | Cc1ccc(/C(=N/NS(=O)(=O)c2ccc([N+](=O)[O-])cc2)Sc2cc(Cl)c(C)cc2S(N)(=O)=O)cc1 [Compound 3] | 100 | 95.2 | 98.1 | 86 | 86 | 95 |
| 3.3 | 69.90% and 70% | 1.02 |  |  | 1.37 | 10.5 | 98 | 51.1 | 24.3 |  |  | C#CCCN1CCN(c2ccc(-n3c(=O)ccc4cnc5ccc(-c6ccc(N)nc6)cc5c43)cc2C(F)(F)F)CC1 [Compound 4, 9-(6-Aminopyridin-3-yl)-1-(4-(4-(but-3-yn-1-yl)piperazin-1-yl)-3-(trifluoromethyl)phenyl)benzo[h][1,6]naphthyridin-2(1H)-one] | 38.4 | 0 | 23.3 | 0 |  |  |
| 2.85 | 35.60% and 36% | 58.4 |  | 64% | 43.8 | 0 | 63.7 |  |  |  |  | CC(C)c1nc(CN(C)C(=O)N[C@@H](CCN2CCOCC2)C(=O)N[C@H](CC[C@H](Cc2ccccc2)NC(=O)OCc2cncs2)Cc2ccccc2)cs1 [Compound 5, cobicistat, reference compound] | 98.7 | 23.7 | 93.3 | 0 |  | 24 |
